Data taken from patent US20240208998A1, “COMPOUNDS FOR USE IN THE TREATMENT OF HYPERPROLIFERATIVE DISORDERS” (FUNDACIÓ PRIVADA INSTITUT D'INVESTIGACIÓ ONCOLÓGICA DE VALL …, priority 2021, published 2024).

Key:
human TET2 construct = human TET2 construct (Homo sapiens, UniProt Q6N021, A1837G/A1840G/D1704G/D1842G/DEL1471-1702/DEL1708-1833/E1841G/F1706G/N1843S/Q1834G/V1836G); assay: Determination of TET2 binding by Surface Plasmon Resonance; details: SPR, Biacore T200, 25° C., steady state fit to single site interaction model
Experimental: The human methylcytosine dioxygenase TET2 construct used (1129-2002 with residues 1471-1843 replaced by a 15-residue GS-linker) was expressed in a pET-28a(+)psumo vector with kanamycin resistance and an N-terminal His6 tag, and cloned in Rosetta D3 Escherichia coli competent cells. Transformed cells were cultured overnight in 10 mL of LB media supplied with kanamycin (50 μg/mL), then scaled to 1 L LB medium supplied with kanamycin (50 μg/mL) and grown at 37° C. Once the optical density (OD600) achieved 0.8, protein expression was induced with 0.4 mM isopropyl-β-thiogalactopyranoside (IPTG) overnight at 18° C. Cells were harvested by centrifugation (8,000 rpm, 4° C., 30 min) and the pellet obtained was resuspended in 15 mL of buffer A (50 mM Hepes, 150 mM NaCl, 30 mM imidazole, 2 mM β-mercaptoethanol (pH 8.0) supplemented with Pierce protease inhibitor cocktail (ThermoFisher Scientific)) and lysed by sonication (1 min 40 s: 10 cycles×10 s ON, 30 s OFF, A=35%, T=19° C.) followed by two consecutive centrifugations (8,000 rpm, 4° C., 30 min) to clarify the lysate.
The TET2 protein was purified using an AKTA Start system (GE Healthcare, Uppsala, Sweden) by two-step purification procedure: one His-affinity chromatography followed by a size exclusion chromatography. First, the protein fraction obtained during the lysis (supernatant) was applied to a 5 mL HisTrap HP column (GE Healthcare), washed with buffer A (50 mM Hepes, 150 mM NaCl, 30 mM imidazole, 2 mM […] (pH 8.0)) and the bound protein was eluted with buffer B (50 mM Hepes, 150 mM NaCl, 250 mM imidazole, 2 mM β-mercaptoethanol (pH 8.0)). The eluted protein-containing fractions were pooled and concentrated up to 4 mL for the last purification step: a size exclusion chromatography (HiPrep 16/60 Sephacryl S-100 HR) in 50 mM Hepes, 150 mM NaCl, 2 mM β-mercaptoethanol (pH 8.0). Finally, the mass and purity of the protein were verified by SDS-electrophoresis and mass spectrometry.
The binding of compounds of the examples was determined by Surface Plasmon Resonance (SPR) using a Biacore T200 SPR biosensor instrument (GE Healthcare, Uppsala, Sweden) at 25° C. The human TET2 construct was immobilized on a CM5 sensor chip using a standard covalent immobilization via amine coupling following the activation of the carboxymethyl dextran matrix of the sensor chip (injection of a solution containing 0.1 M N-hydroxysuccinimide and 0.4 M 1-ethyl-3-[3-(dimethylamino)propyl]carbodiimide hydrochloride at a flow rate of 15 μL/min for 7 min). The protein immobilization was achieved after the injection of 5 μg/mL TET2 in 10 mM sodium acetate (pH 4.0) at a flow rate of 5 μL/min. Unreacted activated groups of the dextran matrix were deactivated by injection of 1 M ethanolamine hydrochloride for 7 min at a flow rate of 15 μL/min. The corresponding matrix activation and protein immobilization were performed using as a running buffer a phosphate buffered saline solution (1.05× PBS: 10 mM phosphate, pH 7.4, 150 mM NaCl). The screened compounds were prepared in a 20 mM stock solution in DMSO and diluted with 1.05× PBS to achieve a final 5% (v/v) DMSO concentration. The running buffer of the interaction assays consisted of 1×PBS, 5% (v/v) DMSO. The flow rate used for the screening was 60 μL/min and the ligand association and dissociation times set were 60 s and 120 s, respectively.
For data analysis the software used was the Biacore T200 Evaluation software. Different corrections were applied. First, the nonspecific binding to the chip surface and the baseline drift were corrected subtracting the signals of a reference surface (where the immobilization procedure was carried out without proteins) to the signals obtained on the TET2 surface. Second, a series of solvent standards (solvent correction) were introduced to remove the differences derived from the DMSO. Finally, the background was corrected subtracting blank injections (blank subtraction) to the injected compound signals.

HL60 cell line = assay: Antiproliferative activity on HL60 cell line (CellTiter-Glo); type: cell-based; details: Homo sapiens, HL-60; HL60, 72 h of treatment
Experimental: The human leukaemic cell line HL60 was grown in suspension in RPMI 1640 medium containing 10% (v/v) FBS and 1% (v/v) P/S (Life Technologies). […] Leukaemia cells were suspended at a density of 2×10^5 cells/mL in complete RPMI 1640 medium and 25 μL were seeded in each well (5×10^3 final total cells/well). A 10 μM solution of the compounds of examples 1, 12 and 21, and a 25 μM solution of all other compounds were prepared in complete medium, and then serially diluted (1:2) (as specified in Table 3 below). A solution of complete medium with DMSO was used as a vehicle control.
Twenty-five microliters of each serially diluted compound solution were added to the corresponding wells of the plate (50 μL of final volume/well). After 48 h of treatment, 50 μL of fresh 2X serially diluted compound solution was added to their corresponding wells (100 μL of final volume/well). After twenty-four additional hours, an equal volume (100 μL) of CellTiter-Glo Reagent (Promega) was added to each well, plates were shaken during 2 min and incubated at rt for 10 min. Luminescence was recorded using a Spark multimode microplate reader and an integration time of 1 s per well.

MCF7 (breast) = assay: Antiproliferative activity on other tumour cell lines (CellTiter-Glo): MCF7; type: cell-based; details: Homo sapiens; MCF7, 72 h of treatment
Experimental: (§1) Other human adherent cancer cell lines were cultured in their corresponding cell medium (as specified in Table 4) supplemented with 10% FBS (v/v) and 1% P/S (v/v). Twenty-four hours prior to treatment with the compounds to be tested (Examples 1, 12 and 21), the cells were seeded in 96-well plates at different densities depending of the cell line (as specified in Table 4).
(§2) Depending on the cell line, a 50, 125 or 250 μM solution of the compounds of examples 1, 12 and 21 were prepared in complete medium, and then serially diluted (1:2) (Table 5). A solution of complete medium with DMSO was used as a vehicle control.
(§3) Fifty microliters of each serially diluted compound solution was added by medium replacement in two wells (by duplicate). After 48 h of treatment, 50 μL of fresh 2X serially diluted compound solution was added to the corresponding wells of the plate (100 μL of final volume/well). After twenty-four additional hours (a total of 72 h of treatment), an equal volume (100 μL) of CellTiter-Glo Reagent (Promega) was added to each well, plates were shaken during 2 min and incubated at rt for 10 min. Luminescence was recorded using a Spark multimode microplate reader and an integration time of 1 s per well.

A375 (melanoma) = assay: Antiproliferative activity on other tumour cell lines (CellTiter-Glo): A375; type: cell-based; details: Homo sapiens, A-375; A375, 72 h of treatment
Experimental: as §1, §2, §3

Row | SMILES | Kd (human TET2 construct) | EC50 (HL60 cell line) | EC50 (MCF7 (breast)) | EC50 (A375 (melanoma))
1 | Cc1[nH]c2ccccc2c1-c1csc(NC(=O)Cc2c[nH]c3ccc(F)cc23)n1 [Example 12, 2-(5-fluoro-1H-indol-3-yl)-N-[4-(2-methyl-1H-indol-3-yl)thiazol-2-yl]acetamide] | 6 µM | 497 nM | 10.3 µM | 2700 nM
2 | Cc1[nH]c2ccccc2c1-c1csc(NC(=O)Cc2c[nH]c3ccccc23)n1 [Example 13, 2-(1H-indol-3-yl)-N-[4-(2-methyl-1H-indol-3-yl)thiazol-2-yl]acetamide] | 14 µM | 1400 nM |  | 

The remaining molecules from weak to strong by Kd (human TET2 construct), led by results:

Row | Kd (human TET2 construct) | EC50 (HL60 cell line) | EC50 (MCF7 (breast)) | EC50 (A375 (melanoma)) | SMILES
3 | 12 µM | 2300 nM |  |  | Cc1[nH]c2ccccc2c1-c1nc(NC(=O)Cc2cn3ccsc3n2)sc1C [Example 4, 2-(imidazo[2,1-b]thiazol-6-yl)-N-[5-methyl-4-(2-methyl-1H-indol-3-yl)thiazol-2-yl]acetamide]
4 | 7 µM | 63 nM | 12.9 µM | 1100 nM | Cc1[nH]c2ccccc2c1-c1csc(NC(=O)Cc2c[nH]c3ccc(O)cc23)n1 [Example 21, 2-(5-hydroxy-1H-indol-3-yl)-N-[4-(2-methyl-1H-indol-3-yl)thiazol-2-yl]acetamide]
5 | 1 µM | 809 nM |  |  | Cc1[nH]c2ccccc2c1-c1csc(NC(=O)Cc2cc(Br)cs2)n1 [Example 19, 2-(4-bromothiophen-2-yl)-N-[4-(2-methyl-1H-indol-3-yl)thiazol-2-yl]acetamide]
